The values that follow come from US20200246317A1, “METHODS OF TREATING DIABETIC NEUROPATHY WITH A THIAZOLINE ANTI-HYPERALGESIC AGENT” (CERSCI THERAPEUTICS, INC., priority 2019, published 2020).

The assay has as its system streptozotocin (STZ)-induced diabetic rats. Nature of the assay: Mechanical thresholds in streptozotocin (STZ)-induced diabetic rats. The class given is in vivo, rat. How it is done: Experiments were conducted to determine the effect of Compound 1 in streptozotocin (STZ)-induced diabetic rats. In the first experiment, after obtaining mechanical threshold baselines, STZ (50 mg/kg IV) was administered (Day −7). Two days later, blood glucose levels were measured and animals that were hyperglycemic (>250 mg/dL) continued in the study. On Day 0 the baseline for mechanical thresholds prior to dosing with test articles was established for the rats. Compound 1 (10, 30, and 100 mg/kg PO), gabapentin (100 mg/kg PO) or vehicle was then administered daily for 5 days. On Day 0 mechanical thresholds were obtained at 1, 3, and 6 h post-dose. On Day 1 mechanical thresholds were measured immediately prior to dosing and then 3 h post-dose. The same regimen was followed on Day 3.
In a subsequent study, the same STZ paradigm was followed. However, in addition to the 100 mg/kg Compound 1 group, two additional cohorts received the Compound 1 100 mg/kg dose split into two or three doses per day with 50 mg/kg BID and 33 mg/kg TID. In addition to the gabapentin (100 mg/kg PO) group, a separate cohort received duloxetine (30 mg/kg PO). Additionally, in this study mechanical threshold testing was implemented every day immediately prior to dosing and 2 h post-dose for 7 days.

[1] abbreviates: subsequent study, 7 days, Compound 1 100 mg/kg QD, 50 mg/kg BID, 33 mg/kg TID, gabapentin 100 mg/kg PO, duloxetine 30 mg/kg PO.

Take `CNCC[C@H](Oc1cccc2ccccc12)c1cccs1` [duloxetine, reference compound]: the “reversal of allodynia (mechanical threshold)” value under setting [1] is listed as “required successive doses for appreciable activity”.

Take `NCC1(CC(=O)O)CCCCC1` [gabapentin, reference compound]: the “reversal of allodynia (mechanical threshold)” value by setting is: (first experiment, Compound 1 10, 30, 100 mg/kg PO, gabapentin 100 mg/kg PO daily, Day 0 (gabapentin: 1 h post-dose on Day 0 and all time points thereafter)) “significant reversal of allodynia”; under setting [1], “robustly reversed the allodynia throughout the study”.
